# Source: US20210147472A1, “SOLID FORMS AND FORMULATIONS COMPRISING A GLUCOCORTICOID RECEPTOR ANTAGONIST AND USES THEREOF” (ORIC Pharmaceuticals, Inc., priority 2018, published 2021)
# How the values were obtained:
# Type in all cases: physicochemical
# [1] = Solubility of Compound 1 (freebase form) in dosing vehicles, HPLC; settings: shaken five days, 25° C. (40° C. semi-solid, 50° C. solid vehicles)
# Experimental: This study was carried out to evaluate the solubility of Compound 1 (freebase form) in a variety of dosing vehicles to identify excipient classes that maximize drug solubility. A total of 20 vehicles which were selected and agreed with the customer were used in this study. Compound 1 was added to approximately 1 gram of the excipients. After the initial addition of Compound 1, the mixtures were shaken in a temperature-controlled vortex mixer at 25° C. (40° C. for vehicles that were semi-solid at room temperature and 50° C. for solid vehicles) then examined for solid residues. If dissolution was observed during the mixing time, additional Compound 1 was added until no further dissolution was observed. After shaking for a total of five days, the suspensions were filtered using a centrifuge tube with 0.45 PVDF membrane filter (Millipore Durapore®). The filtrate was weighed in to a 25-mL volumetric flask and diluted to volume with the diluent solution (90:10% v/v IPA/Acetonitrile) for a determination of Compound 1 concentration via High Performance Liquid Chromatography (HPLC). Residual solids were inspected by PXRD to determine the solid form. Quantitative determination of the amount of API dissolved was performed using reverse-phase HPLC analyses on an Agilent 1290 Infinity II UHPLC system equipped with a Diode Array Detector (DAD). Agilent 1290 Infinity II UHPLC system equipped with a Diode Array Detector (DAD) Mobile Phase A: 0.05% Formic acid in water Mobile Phase B: 0.05% Formic acid in acetonitrile
# [2] = Solubility screen of Compound 1 in lipids; settings: oil or lipid
# [3] = Effect of stabilizers on stability of Compound 1 capsule matrix (A1 formation)
# Experimental: Two antioxidants, α-tocopherol and ascorbyl palmitate, were evaluated to minimize the oxidation. Use of α-tocopherol alone improved Compound 1 stability as measured by the formation of A1 (see Table 1). When ascorbyl palmitate was combined with α-tocopherol, further stability improvement was observed. Table 14 summarizes the compositions of the Compound 1 capsule matrix evaluated and Table 15 summarizes the effect of α-tocopherol and ascorbyl palmitate as stabilizers on the stability of Compound 1.
structure (smiles),measurement,setting,value
"CC(C)N(C)c1ccc([C@H]2C[C@@]3(C)[C@@H](CC[C@@]3(O)C#CC(C)(C)C)[C@@H]3CCC4=CC(=O)CC[C@@H]4[C@H]32)cc1 [Compound 1, (8R,9S,10R,11S,13S,14S,17S)-17-(3,3-dimethylbut-1-yn-1-yl)-17-hydroxy-11-(4-(isopropyl(methyl)amino)phenyl)-13-methyl-1,2,6,7,8,9,10,11,12,13,14,15,16,17-tetradecahydro-3H-cyclopenta[a]phenanthren-3-one]",Solubility,[1]; in Caprylocaproyl polyoxyl-8 glycerides,42.4 mg/g
same,Solubility,[1]; in Decanoic acid (Capric acid),201.0 mg/g
same,Solubility,[1]; in Diethyl glycol monoethyl ether,130.3 mg/g
same,Solubility,[1]; in Glycerin,0.1 mg/g
same,Solubility,[1]; in Glyceryl caprylate/caprate,79.0 mg/g
same,Solubility,[1]; in Glyceryl monolinoleate,41.2 mg/g
same,Solubility,[1]; in Lauroyl polyoxyl-6 glycerides,40.8 mg/g
same,Solubility,[1]; in Lauroyl polyoxyl-32 glycerides,39.2 mg/g
same,Solubility,[1]; in Medium chain triglycerides,26.1 mg/g
same,Solubility,[1]; in Octanoic acid (Caprylic acid),199.2 mg/g
same,Solubility,[1]; in PEG 400,14.5 mg/g
same,Solubility,[1]; in Polyethylene glycol monostearate,34.2 mg/g
same,Solubility,[1]; in Polyethylene glycol sorbitan monolaurate,26.1 mg/g
same,Solubility,[1]; in Propylene Glycol,12.1 mg/g
same,Solubility,[1]; in Propylene glycol monocaprylate,139.6 mg/g
same,Solubility,[1]; in Propylene glycol monolaurate,68.4 mg/g
same,Solubility,[1]; in Sorbitan Monolaurate,34.1 mg/g
same,Solubility,[1]; in Sorbitan monooleate,19.5 mg/g
same,Solubility,[1]; in Triacetin,21.9 mg/g
same,Solubility,[1]; in Vitamin E TPGS,8.3 mg/g
same,Solubility,"[2]; in Capmul MCM (Glyceryl monocaprylcaprate, Type I, NF)",< 40 mg/mL
same,Solubility,"[2]; in Capryol 90 (Propylene glycol monocaprylate, Type II, NF)",40 mg/mL
same,Solubility,"[2]; in Capryol 90 + 5% Poloxamer P188 USP, particulate seen after 24 hours",50 mg/mL
same,Solubility,[2]; in Kolliphor EL (PEG-35 Castor Oil USP),< 40 mg/mL
same,Solubility,"[2]; in Labrasol ALF (Caprylocaproyl Polyoyl-8 glycerides, NF)",40 mg/mL
same,Solubility,[2]; in Maisine CC (Caprylic/capric triglyceride NF),< 40 mg/mL
same,Solubility,[2]; in Tween 20 (Polysorbate 20 NF),< 40 mg/mL
same,Solubility,[2]; in Tween 80 (polysorbate 80 NF),< 40 mg/mL
same,Formation of A1,[3]; combination of α-tocopherol and ascorbyl palmitate as stabilizers,substantially suppresses
same,Formation of primary oxidative N-demethylation product (A1),"[3]; in caprylic acid, extended stability, after about 4-6m",greater than 4%
same,Compound 1 stability as measured by the formation of A1,[3]; use of α-tocopherol alone,improved
